Assay results: patent US20240139214A1, “AGENT FOR SUPPRESSING IL-31 PRODUCTION AND PHARMACEUTICAL COMPOSITION CONTAINING THE SAME” (KYUSHU UNIVERSITY, NATIONAL UNIVERSITY CORPORATION, priority 2021, published 2024)

What was measured:
IL-2 gene (Il2) = assay: IL-2 gene expression in CD4+ T cells from Dock8−/− AND Tg mice (real-time PCR); assay type: cell-based, mouse; settings: 2.5 μM; FIG. 2B
Procedure: (§1) Total RNA was isolated using ISOGEN (Nippon Gene Co., Ltd.). For amplification by PCR, RNA samples treated with RNase-free DNase I (Thermo Fisher Scientific) were reverse-transcribed with oligo(dT) primers (TFS) and SuperScript III reverse transcriptase (TFS). Real-time PCR was performed in a CFX Connect™ thermal cycler (BIO-RAD) using SYBR Green PCR Master Mix (Thermo Fisher Scientific). The expression of mouse and human target genes was normalized to expression of Hprt and PPIB genes, respectively. CFX Manager software (ver.3.1) supplied with the instrument was used for analysis.
(§2) CD4^+ T cells (3×10^5 cells) from Dock8^−/− AND Tg mice were cultured with T cell-depleted irradiated spleen cells (5×10^6 cells) containing a test compound (2.5 μM) or a vehicle alone (0.1% DMSO), in the presence of MCC88-103 (3 μg/ml) for 24 hours.

CAG-OVA mice = assay: Scratch behavior measurement in CAG-OVA mice injected with activated CD4+ T cells from Dock8−/− OTII Tg mice; assay type: in vivo; settings: oral administration; FIG. 6
Procedure: Mice were put into an acrylic cage (11×14×20 cm) for at least 1 hour for acclimation, and their behaviors were videotaped. Playback of the video was used for determination of the total number of scratching bouts per 2 hours. When mice scratch, they stretch their hind paw toward the itchy spot, lean their head toward the hind paw, rapidly move the paw several times, and then lower it back to the floor. A series of these movements was counted as one bout of scratching.
To investigate whether compound 1 has an itch inhibitory action, mice expressing ovalbumin (OVA) under the control of the cytomegalovirus immediate early enhancer-chicken β-actin hybrid promoter (hereafter referred to as “CAG-OVA mice”) were used. Activated CD4^+ T cells (8.0×10^6 per mouse) from Dock8^−/− OTII Tg mice were stimulated with OVA323-339 (ISQAVHAAHAEINEAGR (SEQ ID NO: 2), 1 μg/ml) for 72 hours and intravenously injected into CAG-OVA mice, and the scratch behavior of the mice was measured 1 hour later. As a result, when the activated CD4^+ T cells were injected into CAG-OVA mice, scratch behavior was induced (see the results of the vehicle in FIG. 6).

[1] = Single-dose toxicity study, oral administration; assay type: in vivo; settings: 100-mg oral administration
Procedure: From these, it is determined that compound 1 is a highly safe compound with low cytotoxicity.

[2] = system: GLUT1 expression in human cancer cell line HT1080; assay: Hypoxia-induced GLUT1 expression in HT1080; assay type: cell-based; settings: HT1080, 1% O2; FIG. 7
Procedure: (§3) Human sarcoma cell line HT1080 was provided by Y. Matsumoto (Kyushu University). For hypoxic induction, HT1080 (3×10^5 cells) was cultured in 1% O2 for 12 hours before assays.
as §1
(§4) (1) Although EPAS1 is known to control hypoxic responses through complex formation with aryl hydrocarbon receptor nuclear translocator (ARNT) (NPL 6), EPAS1-mediated Il31 promoter activation is independent of ARNT (NPL 4). FM19G11 is not a direct inhibitor of EPAS1, but is known to suppress the expression of the EPAS1 gene (Epas1) by acting on an unidentified target (NPL 7). Treatment of human cancer cell line HT1080 with […] suppressed VEGFA expression and GLUT1 expression induced by hypoxia (FIG. 7).

[3] = system: VEGFA expression in human cancer cell line HT1080; assay: Hypoxia-induced VEGFA expression in HT1080; assay type: cell-based; settings: HT1080, 1% O2; FIG. 7
Procedure: as §3, §1, §4

mouse IL-31 gene = assay: IL-31 production inhibitory action: IL-31 gene expression by real-time PCR in antigen-stimulated CD4+ T cells from Dock8−/− AND Tg mice; assay type: cell-based
[4] = Blood concentration after oral administration; assay type: in vivo; settings: 100 mg orally, C57BL/6 mice, monitored 24 hours; FIG. 5
Procedure: After compound 1 (100 mg) was orally administered to C57BL/6 mice (n=3), its blood concentration was monitored for 24 hours.

EPAS1 = biological target: T1, EPAS1 (Mus musculus, UniProt P97481); assay: Chromatin immunoprecipitation (ChIP) assay: recruitment of EPAS1 to the IL-31 gene promoter region in CD4+ T cells; assay type: cell-based; settings: antigen stimulation, 2.5 μM; FIG. 8
T1 construct: endogenous in cells; host or cells: CD4+ T cells from Dock8-/- AND Tg mice, stimulated with MCC88-103
T1 sequence (P97481 whole entry): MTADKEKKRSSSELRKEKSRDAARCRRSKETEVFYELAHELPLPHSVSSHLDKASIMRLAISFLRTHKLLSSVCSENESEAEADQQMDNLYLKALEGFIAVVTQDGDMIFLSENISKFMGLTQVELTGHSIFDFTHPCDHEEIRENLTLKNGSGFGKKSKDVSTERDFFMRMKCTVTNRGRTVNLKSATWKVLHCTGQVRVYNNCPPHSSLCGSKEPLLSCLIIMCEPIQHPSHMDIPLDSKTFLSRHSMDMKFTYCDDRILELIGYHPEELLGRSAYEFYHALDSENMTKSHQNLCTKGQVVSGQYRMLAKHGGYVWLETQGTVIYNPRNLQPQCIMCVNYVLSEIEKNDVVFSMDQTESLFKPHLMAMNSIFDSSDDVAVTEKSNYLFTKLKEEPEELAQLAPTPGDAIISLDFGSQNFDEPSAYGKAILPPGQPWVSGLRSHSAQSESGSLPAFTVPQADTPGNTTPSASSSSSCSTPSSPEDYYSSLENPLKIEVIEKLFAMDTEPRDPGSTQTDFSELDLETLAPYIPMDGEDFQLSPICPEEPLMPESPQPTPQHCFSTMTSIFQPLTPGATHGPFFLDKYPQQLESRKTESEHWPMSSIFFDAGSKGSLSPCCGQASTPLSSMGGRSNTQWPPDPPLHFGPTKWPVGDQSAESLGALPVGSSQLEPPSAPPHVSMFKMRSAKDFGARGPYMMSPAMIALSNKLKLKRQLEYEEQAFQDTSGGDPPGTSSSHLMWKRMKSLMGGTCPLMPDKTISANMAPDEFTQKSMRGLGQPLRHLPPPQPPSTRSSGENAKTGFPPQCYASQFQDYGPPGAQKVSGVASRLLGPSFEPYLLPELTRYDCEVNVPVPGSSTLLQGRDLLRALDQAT
Procedure: A ChIP assay was performed using activated mouse CD4^+ T cells and immortalized MEFs. Briefly, CD4^+ T cells from Dock8^−/− AND Tg mice were stimulated with MCC88-103 in the presence of a test compound (2.5 μM) or a vehicle alone (0.1% DMSO) for 24 hours. Immortalized MEFs were co-transfected with pcDNA-human EPAS1 (2 μg) in the presence of pGL4.10 IL31 (2 μg). Six hours after transfection, the MEFs were suspended in 10% FCS-containing DMEM that contains a test compound (10 μM) or a vehicle alone (0.1% DMSO) for another 24 hours.
The activated mouse CD4^+ cells and the transfected MEFs were treated with 0.5% formaldehyde at room temperature for 5 minutes and then neutralized with glycine at room temperature for 5 minutes. The resulting cells were washed twice with PBS containing a protease inhibitor, and then nuclei were isolated using a Magna ChIP™ HiSens kit (Millipore, Burlington, MS) according to the manufacturer's protocol. […] After centrifugation at 10,000 g at 4° C. for 10 minutes, the sheared chromatin DNA was obtained and treated with RNase and proteinase K for quantifying DNA content. […]
Magnetic beads preincubated with rabbit polyclonal IgG (ab171870; Abcam) were used for control studies. […] Eluted DNA and input chromatin DNA were analyzed with a CFX Connect™ thermal cycler (BIO-RAD) using SYBR Green PCR Master Mix (Thermo Fisher Scientific) and the following primers. […]

IL-4 gene (Il4) = assay: IL-4 gene expression in CD4+ T cells from Dock8−/− AND Tg mice (real-time PCR); assay type: cell-based, mouse; settings: 2.5 μM; FIG. 2B
Procedure: as §1, §2

IL-2 = IL-2 production by SEB-stimulated human CD4+ T cells of AD patients (AlphaLISA); assay type: cell-based; settings: SEB stimulation; FIG. 9B
IL-31 = IL-31 production by SEB-stimulated human CD4+ T cells of AD patients (AlphaLISA); assay type: cell-based; settings: SEB stimulation; FIG. 9A
[5] = system: human IL-31 gene promoter; assay: Luciferase reporter assay of human IL-31 gene promoter in MEFs in the presence of human EPAS1; assay type: cell-based; settings: reporter construct (−1,308 to −1) in MEFs
CD4+ T cells = assay: T cell proliferation assay (PMA and ionomycin, 3H-thymidine incorporation); assay type: cell-based, mouse
Procedure: A T cell proliferation assay was performed by culturing CD4^+ T cells (5×10^4 cells) with T cell-depleted irradiated spleen cells (1×10^6 cells) in the presence of phorbol 12-myristate 13-acetate (PMA: 100 ng/ml; Sigma-Aldrich) and ionomycin (1 μg/ml; Sigma-Aldrich) for 66 hours. For the last 18 hours of culture, ^3H-thymidine (0.037 MBq) was added, and the incorporated radioactivity was measured with MicroBeta^2 (PerkinElmer, Inc., Waltham, MS).
A T cell proliferation assay was performed by culturing CD4^+ T cells (5×10^4 cells) with T cell-depleted irradiated spleen cells (1×10^6 cells) in the presence of phorbol 12-myristate 13-acetate (PMA: 100 ng/ml; Sigma-Aldrich) and ionomycin (1 μg/ml; Sigma-Aldrich) for 66 hours. Test compounds were added at various final concentrations at the start of culture. For the last 18 hours of culture, ^3H-thymidine (0.037 MBq) was added, and the incorporated radioactivity was measured with MicroBeta^2 (PerkinElmer, Inc., Waltham, MS). […]

[6] = Mus musculus, CD4+ T, 24 h, read-out: qPCR results (IL-31 production (%)): based on the case using 0.1% DMSO taken as 100%

SMILES: CC(C)c1ccc(/C=N/Nc2ccc(C(=O)O)cc2)cc1 [Compound 1, 4-(2-(4-Isopropylbenzylidene)hydrazinyl)benzoic Acid]
- effect on expression of IL-2 gene (IL-2 gene (Il2)): neither of these compounds had an effect
- scratch behavior (number of scratching bouts during 2 hours) (CAG-OVA mice): significantly suppressed
- body weight gain versus non-treated group [1]: did not differ from the non-treated group
- histological or biochemical abnormalities [1]: no histological or biochemical abnormalities
- GLUT1 expression induced by hypoxia [2]: did not show such an effect of suppressing expression
- VEGFA expression induced by hypoxia [3]: did not show such an effect of suppressing expression
- antigen-induced IL-31 gene expression (in words) (mouse IL-31 gene; 2.5 μM, FIG. 2A): significantly inhibited
- activity at 0.078 µM (mouse IL-31 gene; [6]): 57.5%
- activity at 0.156 µM (mouse IL-31 gene; [6]): 40.1%
- activity at 0.312 µM (mouse IL-31 gene; [6]): 38.7%
- activity at 0.625 µM (mouse IL-31 gene; [6]): 23.9%
- activity at 1.25 µM (mouse IL-31 gene; [6]): 16.4%
- time after oral administration within which compound was eluted into the blood [4]: ≤ 12 h
- recruitment of EPAS1 to the IL-31 gene promoter region (−1336 to −1042) (EPAS1): greatly reduced
- effect on expression of IL-4 gene (IL-4 gene (Il4)): neither of these compounds had an effect
- IL-2 production by CD4+ T cells of AD patients (IL-2): not affected
- IL-31 production by CD4+ T cells of AD patients (IL-31): reduced IL-31 production in a dose-dependent manner
- activation of the human IL-31 gene promoter [5]: significantly suppressed
- effect on non-specific T cell proliferation induced by PMA and ionomycin (CD4+ T cells; FIG. 4): neither of these compounds had an adverse effect
- effect on non-specific T-cell proliferation response in vitro (CD4+ T cells; even when used at 50 μM): did not affect
